Results reported in ChEMBL document CHEMBL1770076, “(+)-Arisugacin A--computational evidence of a dual binding site covalent inhibitor of acetylcholinesterase” (Bioorg Med Chem Lett, 2011).

Key:
Cholinesterase = Cholinesterase (Homo sapiens, UniProt P06276)
Acetylcholinesterase = Acetylcholinesterase (Homo sapiens, UniProt P22303)
Acetylcholinesterase, sequence (P22303 whole entry): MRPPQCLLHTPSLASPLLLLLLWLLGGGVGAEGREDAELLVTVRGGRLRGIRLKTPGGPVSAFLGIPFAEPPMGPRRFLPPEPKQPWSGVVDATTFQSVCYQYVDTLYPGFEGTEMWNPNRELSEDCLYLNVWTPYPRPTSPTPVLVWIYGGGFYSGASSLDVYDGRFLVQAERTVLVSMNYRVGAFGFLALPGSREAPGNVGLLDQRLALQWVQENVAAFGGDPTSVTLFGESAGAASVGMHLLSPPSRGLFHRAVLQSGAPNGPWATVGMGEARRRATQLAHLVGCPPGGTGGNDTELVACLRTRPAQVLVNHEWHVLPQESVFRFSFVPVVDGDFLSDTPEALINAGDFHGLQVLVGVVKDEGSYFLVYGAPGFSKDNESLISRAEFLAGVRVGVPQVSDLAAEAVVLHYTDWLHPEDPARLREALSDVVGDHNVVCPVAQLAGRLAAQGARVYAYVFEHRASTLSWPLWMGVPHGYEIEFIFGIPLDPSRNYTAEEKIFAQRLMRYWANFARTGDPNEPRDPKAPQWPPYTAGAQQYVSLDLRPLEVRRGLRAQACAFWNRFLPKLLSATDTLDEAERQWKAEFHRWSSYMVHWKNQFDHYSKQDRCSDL
Description: Inhibition of AChE-induced amyloid beta aggregation

Cholinesterase, sequence (P06276 whole entry): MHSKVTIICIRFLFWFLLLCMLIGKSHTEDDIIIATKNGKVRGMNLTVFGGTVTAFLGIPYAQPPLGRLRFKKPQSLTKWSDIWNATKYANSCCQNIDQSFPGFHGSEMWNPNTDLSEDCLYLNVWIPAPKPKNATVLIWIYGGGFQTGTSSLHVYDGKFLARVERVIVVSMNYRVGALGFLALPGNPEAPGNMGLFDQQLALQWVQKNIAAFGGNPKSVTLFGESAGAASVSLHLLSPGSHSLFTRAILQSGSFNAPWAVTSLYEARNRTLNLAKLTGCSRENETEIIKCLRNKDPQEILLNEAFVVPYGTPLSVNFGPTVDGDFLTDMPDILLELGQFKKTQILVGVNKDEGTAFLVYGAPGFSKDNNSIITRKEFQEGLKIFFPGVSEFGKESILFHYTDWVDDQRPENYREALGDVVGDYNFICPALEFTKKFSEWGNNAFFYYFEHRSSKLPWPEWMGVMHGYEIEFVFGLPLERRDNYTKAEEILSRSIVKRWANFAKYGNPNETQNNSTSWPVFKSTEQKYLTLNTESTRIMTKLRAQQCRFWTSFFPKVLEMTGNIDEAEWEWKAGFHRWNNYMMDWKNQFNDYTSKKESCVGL

| SMILES | IC50 (Cholinesterase) | IC50 (Acetylcholinesterase) |
| --- | --- | --- |
| COc1ccc(-c2cc3c(c(=O)o2)C[C@]2(O)[C@@]4(C)C(=O)C=CC(C)(C)[C@]4(O)CC[C@@]2(C)O3)cc1OC | 18 µM |  |
| C/C=C1\[C@H]2C=C(C)C[C@]1(N)c1ccc(=O)[nH]c1C2 [HUPERZINE A] | 0.1 µM |  |
| COc1cc(-c2cc3c(c(=O)o2)C[C@]2(O)[C@@]4(C)C(=O)C=CC(C)(C)[C@]4(O)CC[C@@]2(C)O3)cc(OC)c1OC [TERRITREM B] |  | 0.006 µM |
